Reference: patent US10358446B2, “Bruton's tyrosine kinase inhibitors” (Zibo Biopolar Changsheng Pharmaceutical Co. Ltd., priority 2015, dated 2019)

These compounds were tested against BTK (Homo sapiens (Human), UniProt Q06187) (assay: Btk kinase assay (HTRF)). Settings: [ATP]=80 μM, BTK=3.4 nM; read-out: BTK Inhibition.
Assay type: biochemical
Procedure: Btk kinase activity was determined using a homogenous time resolved fluorescence (HTRF) methodology. Measurements were performed in a reaction volume of 15 μL using 384-well assay plates. Kinase enzyme, inhibitor, ATP and 1 μM peptide substrate were incubated in a reaction buffer compose of Hepes 50 mM (pH7.0), NaN3 0.02%, BSA 0.01%, Orthocanadate 0.1 mM. After one hour, the kinase reaction was quenched by the addition of […] antibody and XL-665 in 1× Detection buffer containing 60 mM EDTA (Cisbio), and the mixture was allowed to incubate for one hour. The HTRF signal was measured on a multimode plate reader (EnVision® Multilabel Reader, Perkin Elmer) with an excitation wavelength (λEx) of 330 nm and detection wavelengths (λEm) of 615 and 665 nrm. Activity was determined by the ratio of the fluorescence at 665 nm to that at 615 nm. For each compound, enzyme activity as measured at various concentrations of compound, Negative control reactions were performed in the absence of inhibitor in two replicates and eight no enzyme controls were used to determine baseline fluorescence levels. IC50s were obtained according to the equation: […] For BTK assay, [ATP]=80 μM, BTK=3.4 nM.

Sequence of BTK (Q06187 whole entry, species assumed): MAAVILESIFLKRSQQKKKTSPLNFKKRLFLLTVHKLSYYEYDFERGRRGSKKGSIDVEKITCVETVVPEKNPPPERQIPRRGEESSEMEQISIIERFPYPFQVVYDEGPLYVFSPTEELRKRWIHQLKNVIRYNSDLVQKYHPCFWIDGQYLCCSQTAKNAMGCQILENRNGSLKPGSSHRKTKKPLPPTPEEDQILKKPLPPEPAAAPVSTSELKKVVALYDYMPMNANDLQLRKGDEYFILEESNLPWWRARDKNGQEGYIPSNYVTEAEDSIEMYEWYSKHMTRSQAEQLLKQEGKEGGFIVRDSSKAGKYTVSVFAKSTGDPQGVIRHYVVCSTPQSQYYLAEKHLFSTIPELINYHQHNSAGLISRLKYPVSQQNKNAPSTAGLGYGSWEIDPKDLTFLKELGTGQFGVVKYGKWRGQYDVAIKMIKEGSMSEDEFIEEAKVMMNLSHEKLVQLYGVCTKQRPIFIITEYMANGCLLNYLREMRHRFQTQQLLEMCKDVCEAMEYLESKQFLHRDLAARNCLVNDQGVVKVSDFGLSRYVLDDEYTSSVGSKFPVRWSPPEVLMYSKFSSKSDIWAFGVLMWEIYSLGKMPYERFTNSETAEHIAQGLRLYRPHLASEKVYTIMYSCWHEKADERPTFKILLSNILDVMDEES

SMILES	IC50
C=CC(=O)Nc1cccc(-n2c(=O)n(-c3ccc(OCc4ccccc4C)cc3)c3cnccc32)c1 [Example 225, N-(3-(3-(4-((2-methylbenzyl)oxy)phenyl)-2-oxo-2,3-dihydro-1H-imidazo[4,5-c]pyridin-1-yl)phenyl)acrylamide]	0.1 to 1 µM
C=CC(=O)Nc1cccc(-n2c(=O)n(-c3ccc(OCc4cccc(Cl)c4)cc3)c3cnccc32)c1 [Example 230, N-(3-(3-(4-((3-chlorobenzyl)oxy)phenyl)-2-oxo-2,3-dihydro-1H-imidazo[4,5-c]pyridin-1-yl)phenyl)acrylamide]	0.01 to 0.1 µM
C=CC(=O)Nc1cccc(-n2c(=O)n(-c3ccc(Oc4cccc(Cl)c4F)cc3)c3cnccc32)c1 [Example 54, N-(3-(3-(4-(3-chloro-2-fluorophenoxy)phenyl)-2-oxo-2,3-dihydro-1H-imidazo[4,5-c]pyridin-1-yl)phenyl)acrylamide]	0.01 to 0.1 µM
C=CC(=O)Nc1cccc(-n2c(=O)n(-c3ccc(OCc4cc(F)cc(F)c4)cc3)c3cnccc32)c1 [Example 219, N-(3-(3-(4-((3,5-difluorobenzyl)oxy)phenyl)-2-oxo-2,3-dihydro-1H-imidazo[4,5-c]pyridin-1-yl)phenyl)acrylamide]	0.1 to 1 µM
C=CC(=O)N1CCCC1Cn1c(=O)n(-c2ccc(Oc3ccccc3)cc2)c2cnccc21 (centres unmarked) [Example 178, 1-(1-Acryloyl-pyrrolidin-2-ylmethyl)-3-(4-phenoxy-phenyl)-1,3-dihydro-imidazo [4,5-c]pyridin-2-one]	0.01 to 0.1 µM
C=CC(=O)Nc1cccc(-n2c(=O)n(-c3ccc(Oc4cccc(OC)c4)c(F)c3)c3cnccc32)c1 [Example 94, N-(3-(3-(3-fluoro-4-(3-methoxyphenoxy)phenyl)-2-oxo-2,3-dihydro-1H-imidazo[4,5-c]pyridin-1-yl)phenyl)acrylamide]	0.01 to 0.1 µM
C=CC(=O)N1CCC[C@@H](n2c(=O)n(-c3ccc(Oc4cccc(C)c4)c(Cl)c3)c3cnccc32)C1 [Example 108, (R)-1-(1-acryloylpiperidin-3-yl)-3-(3-chloro-4-(m-tolyloxy)phenyl)-1H-imidazo[4,5-c]pyridin-2(3H)-one]	0.01 to 0.1 µM
C=CC(=O)N1CC[C@@H](n2c(=O)n(-c3ccc(Oc4ccc(Cl)c(Cl)c4)c(Cl)c3)c3cnccc32)C1 [Example 44, (R)-1-(1-acryloylpyrrolidin-3-yl)-3-(3-chloro-4-(3,4-dichlorophenoxy)phenyl)-1H-imidazo[4,5-c]pyridin-2(3H)-one]	0.01 to 0.1 µM
C=CC(=O)N1CC[C@@H](n2c(=O)n(-c3ccc(Oc4ccc(OC)c(OC)c4)cc3)c3cnccc32)C1 [Example 40, (R)-1-(1-acryloylpyrrolidin-3-yl)-3-(4-(3,4-dimethoxyphenoxy)phenyl)-1H-imidazo[4,5-c]pyridin-2(3H)-one]	0.01 to 0.1 µM
C=CC(=O)N1CC[C@@H](n2c(=O)n(-c3ccc(NC(=O)c4ccc(OC)c(C(F)(F)F)c4)cc3)c3cnccc32)C1 [Example 268, (R)-N-(4-(1-(1-acryloylpyrrolidin-3-yl)-2-oxo-1H-imidazo[4,5-c]pyridin-3(2H)-yl)phenyl)-4-methoxy-3-(trifluoromethyl)benzamide]	0.1 to 1 µM
C=CC(=O)Nc1cccc(-n2c(=O)n(-c3cccc(Oc4ccccc4C)c3)c3cnccc32)c1 [Example 88, N-(3-(2-oxo-3-(3-(o-tolyloxy)phenyl)-2,3-dihydro-1H-imidazo[4,5-c]pyridin-1-yl)phenyl)acrylamide]	0.01 to 0.1 µM
C=CC(=O)N1CC[C@@H](n2c(=S)n(-c3ccc(Oc4cccc(C)c4)cc3)c3cnccc32)C1 [Example 11, (R)-1-(3-(2-thioxo-3-(4-(m-tolyloxy)phenyl)-2,3-dihydro-1H-imidazo[4,5-c]pyridin-1-yl)pyrrolidin-1-yl)prop-2-en-1-one]	0.1 to 1 µM
C=CC(=O)Nc1cccc(-n2c(=O)n(-c3cccc(Oc4cccc(F)c4)c3)c3cnccc32)c1 [Example 75, N-(3-(3-(3-(3-fluorophenoxy)phenyl)-2-oxo-2,3-dihydro-1H-imidazo[4,5-c]pyridin-1-yl)phenyl)acrylamide]	0.01 to 0.1 µM
C=CC(=O)N1CCC[C@@H](n2c(=O)n(-c3ccc(Oc4ccccc4)c(F)c3)c3cnccc32)C1 [Example 12, (R)-1-(1-acryloylpiperidin-3-yl)-3-(3-fluoro-4-phenoxyphenyl)-1H-imidazo[4,5-c]pyridin-2(3H)-one]	0.01 to 0.1 µM
C=CC(=O)Nc1cccc(-n2c(=O)n(-c3ccc(Oc4ccccc4)c(C)c3)c3cnccc32)c1 [Example 27, N-(3-(3-(3-methyl-4-phenoxyphenyl)-2-oxo-2,3-dihydro-1H-imidazo [4,5-c]pyridin-1-yl)phenyl)acrylamide]	1 to 10 µM
C=CC(=O)Nc1cccc(-n2c(=O)n(-c3ccc(Oc4ccnc(C(=O)NC)c4)cc3)c3cnccc32)c1 [Example 115, 4-(4-(1-(3-acrylamidophenyl)-2-oxo-1H-imidazo[4,5-c]pyridin-3(2H)-yl)phenoxy)-N-methylpicolinamide]	0.1 to 1 µM

SMILES	IC50
C=CC(=O)N1CCC(Cn2c(=O)n(-c3ccc(Oc4ccccc4)cc3)c3cnccc32)CC1 [Example 15, 1-((1-acryloylpiperidin-4-yl)methyl)-3-(4-phenoxyphenyl)-1H-imidazo[4,5-c]pyridin-2(3H)-one]	0.1 to 1 µM
C=CC(=O)Nc1cccc(-n2c(=O)n(-c3ccc(Oc4cccc(C)c4)c(C)c3)c3cnccc32)c1 [Example 47, N-(3-(3-(3-methyl-4-(m-tolyloxy)phenyl)-2-oxo-2,3-dihydro-1H-imidazo[4,5-c]pyridin-1-yl)phenyl) acrylamide]	1 to 10 µM
C=CC(=O)N1CC[C@@H](n2c(=O)n(-c3ccc(OCc4cccc(C(F)(F)F)c4)cc3)c3cnccc32)C1 [Example 211, (R)-1-(1-acryloylpyrrolidin-3-yl)-3-(4-((3-(trifluoromethyl)benzyl)oxy)phenyl)-1H-imidazo[4,5-c]pyridin-2(3H)-one]	0.1 to 1 µM
C=CC(=O)Nc1cccc(-n2c(=O)n(-c3ccc(Oc4ccc(OC)c(C)c4)cc3)c3cnccc32)c1 [Example 163, N-(3-(3-(4-(4-methoxy-3-methylphenoxy)phenyl)-2-oxo-2,3-dihydro-1H-imidazo[4,5-c]pyridin-1-yl)phenyl)acrylamide]	0.1 to 1 µM
C=CC(=O)N1CC[C@@H](n2c(=O)n(-c3ccc(OCc4ccccc4)cc3)c3cnccc32)C1 [Example 246]	0.1 to 1 µM
C=CC(=O)Nc1cccc(-n2c(=O)n(-c3ccc(OCc4cc(F)ccc4F)cc3)c3cnccc32)c1 [Example 220, N-(3-(3-(4-((2,5-difluorobenzyl)oxy)phenyl)-2-oxo-2,3-dihydro-1H-imidazo[4,5-c]pyridin-1-yl)phenyl)acrylamide]	0.1 to 1 µM
C=CC(=O)N1CC[C@@H](n2c(=O)n(-c3ccc(Oc4cccc(Cl)c4OC)cc3)c3cnccc32)C1 [Example 63, (R)-1-(1-acryloylpyrrolidin-3-yl)-3-(4-(3-chloro-2-methoxyphenoxy)phenyl)-1H-imidazo[4,5-c]pyridine-2(3H)-one]	0.01 to 0.1 µM
C=CC(=O)N1CC[C@@H](n2c(=O)n(-c3ccc(Oc4cccc(F)c4)c(Cl)c3)c3cnccc32)C1 [Example 41, (R)-1-(1-acryloylpyrrolidin-3-yl)-3-(3-chloro-4-(3-fluorophenoxy)phenyl)-1H-imidazo[4,5-c]pyridin-2(3H)-one]	≤ 0.01 µM
C=CC(=O)N1CC[C@@H](n2c(=O)n(-c3ccc(Oc4ccccc4)cc3)c3c([N+](=O)[O-])cccc32)C1 [Example 189, (R)-1-(1-acryloylpyrrolidin-3-yl)-4-nitro-3-(4-phenoxyphenyl)-1H-benzo[d]imidazol-2(3H)-one]	≥ 10 µM
C=CC(=O)N1CC[C@@H](n2c(=O)n(-c3cccc(Oc4ccc(C)cc4)c3)c3cnccc32)C1 [Example 16, (R)-1-(1-acryloylpyrrolidin-3-yl)-3-(3-(p-tolyloxy)phenyl)-1H-imidazo[4,5-c]pyridin-2(3H)-one]	0.01 to 0.1 µM
C=CC(=O)N1CC[C@@H](n2c(=O)n(-c3ccc(Oc4cccc(C(C)C)c4)cc3)c3cnccc32)C1 [Example 153, (R)-1-(1-acryloylpyrrolidin-3-yl)-3-(4-(3-isopropylphenoxy)phenyl)-1H-imidazo[4,5-c]pyridin-2(3H)-one]	0.01 to 0.1 µM
C=CC(=O)Nc1cccc(-n2c(=O)n(-c3ccc(Oc4cccc(F)c4F)cc3)c3cnccc32)c1 [Example 125, N-(3-(3-(4-(2,3-difluorophenoxy)phenyl)-2-oxo-2,3-dihydro-1H-imidazo[4,5-c]pyridin-1-yl)phenyl)acrylamide]	0.01 to 0.1 µM
C=CC(=O)N1CC[C@@H](n2c(=O)n(-c3ccc(C(=O)NCc4cccc(OC)c4)cc3)c3cnccc32)C1 [Example 256, (R)-4-(1-(1-acryloylpyrrolidin-3-yl)-2-oxo-1H-imidazo[4,5-c]pyridin-3(2H)-yl)-N-(3-methoxybenzyl)benzamide]	1 to 10 µM
C=CC(=O)Nc1cccc(-n2c(=O)n(-c3ccc(Oc4cccc(OC(C)C)c4)c(C)c3)c3cnccc32)c1 [Example 46, N-(3-(3-(4-(3-isopropoxyphenoxy)-3-methylphenyl)-2-oxo-2,3-dihydro-1H-imidazo[4,5-c]pyridin-1-yl)phenyl)acrylamide]	1 to 10 µM
C=CC(=O)Nc1cccc(-n2c(=O)n(-c3ccc(Oc4cc(Cl)cc(OC)c4)cc3)c3cnccc32)c1 [Example 71, N-(3-(3-(4-(3-chloro-5-methoxyphenoxy)phenyl)-2-oxo-2,3-dihydro-1H-imidazo[4,5-c]pyridin-1-yl)phenyl)acrylamide]	0.1 to 1 µM
C=CC(=O)N1CC[C@@H](n2c(=O)n(-c3ccc(-c4ccc(Cl)cc4Cl)cc3)c3cnccc32)C1 [Example 275]	≥ 10 µM
